In PubChem BioAssay (NCI) one finds TGI data, which are given here for seven compounds.

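Tested at 5 concentrations; 48 h exposure; 96-well plates; endpoints linearly interpolated, else capped at highest concentration. TGI: total growth inhibition.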 Bounds are passed on as bounds.

Among the test systems are NCI-H460 lung; K-562 leukemia; RPMI-8226 leukemia; OVCAR-5 ovarian; COLO 205 colon; UACC-62 melanoma; BT-549 breast; SR leukemia; TK-10 renal; SN12C renal; NCI-H226 lung; SNB-19 CNS; A498 renal; HOP-62 NSCLC; IGROV1 ovarian; HT29 colon; MOLT-4 leukemia; SF-295 CNS; U251 CNS; CAKI-1 renal.
Assay in all cases: inhibition of tumour cell growth, NCI panel, 48 h

For the compound `CN1CCC/C1=C1\C(=O)c2cccn2C1=O`, the TGI in the test with NCI-H460 lung, in the test on K-562 leukemia, with RPMI-8226 leukemia, in the test with OVCAR-5 ovarian, in the test on COLO 205 colon and in the test with UACC-62 melanoma was > 100 µM in each case. The TGI in the test on BT-549 breast, in the test with SR leukemia, with TK-10 renal, in the test on SN12C renal, in the test on NCI-H226 lung and in the test with SNB-19 CNS was > 100 µM throughout. Moreover, the TGI with A498 renal, in the test on HOP-62 NSCLC, in the test with IGROV1 ovarian, in the test with HT29 colon, with MOLT-4 leukemia and in the test with SF-295 CNS was > 100 µM throughout. Further, the TGI in the test on U251 CNS and with CAKI-1 renal was > 100 µM in each case.

As for `CC(C)=CCC[C@@H](C)C1=C(Nc2ccccc2)C(O)=C(C)C(=O)C1=O`, the TGI was > 40 µM in the test on NCI-H460 lung; > 39.9 µM in the test with K-562 leukemia; > 100 µM with RPMI-8226 leukemia; > 43.5 µM in the test on OVCAR-5 ovarian; 13.1 µM in the test with COLO 205 colon; 20.7 µM in the test on UACC-62 melanoma. In addition, the TGI in the test with BT-549 breast was 23.1 µM; in the test on SR leukemia it was 6.08 µM; with TK-10 renal, > 55.1 µM; in the test on SN12C renal, 41.6 µM; in the test on NCI-H226 lung, 18.1 µM; in the test with SNB-19 CNS it was 22.8 µM. Further, the TGI in the test with A498 renal is > 30.4 µM; in the test with HOP-62 NSCLC, 15.6 µM; in the test on IGROV1 ovarian, 17.6 µM; in the test with HT29 colon it was 15.3 µM; with MOLT-4 leukemia, > 22.7 µM; in the test on SF-295 CNS, 11.1 µM. The TGI in the test on U251 CNS is > 56.1 µM; in the test with CAKI-1 renal, 11.8 µM.

For the compound `CNC(=S)NNC1=NCCCCN1`, the TGI in the test on NCI-H460 lung, in the test on K-562 leukemia, in the test with RPMI-8226 leukemia, in the test on OVCAR-5 ovarian, with COLO 205 colon and in the test on UACC-62 melanoma was > 100 µM each time. The TGI in the test with BT-549 breast, in the test with SR leukemia, in the test on TK-10 renal, in the test with NCI-H226 lung, in the test with SNB-19 CNS and in the test with A498 renal was > 100 µM each time. Moreover, the TGI in the test with HOP-62 NSCLC, with IGROV1 ovarian, in the test with HT29 colon, in the test on MOLT-4 leukemia, with SF-295 CNS and in the test on U251 CNS was > 100 µM in each case. For the same compound, in the test on CAKI-1 renal, the TGI is > 100 µM.

As to `N#CC1=C(N2CCOCC2)CCC1`, the TGI with K-562 leukemia, in the test with RPMI-8226 leukemia, in the test with OVCAR-5 ovarian, with COLO 205 colon, with UACC-62 melanoma and in the test on BT-549 breast was > 100 µM throughout. Moreover, the TGI in the test on SR leukemia, in the test on TK-10 renal, in the test on SN12C renal, with NCI-H226 lung, in the test with SNB-19 CNS and in the test with A498 renal was > 100 µM throughout. For the same compound, the TGI with HOP-62 NSCLC, in the test on IGROV1 ovarian, in the test on HT29 colon, in the test on MOLT-4 leukemia, with SF-295 CNS and in the test with U251 CNS was > 100 µM in each case. In addition, in the test with CAKI-1 renal, the TGI is > 100 µM.

Turning to `CO[C@H](c1ccccc1)[C@H](O)[C@](O)(c1ccccc1)P(=O)(OC)OC`, the TGI in the test on NCI-H460 lung, in the test with K-562 leukemia, in the test on RPMI-8226 leukemia, with OVCAR-5 ovarian, with COLO 205 colon and in the test with UACC-62 melanoma was > 100 µM each time. The TGI in the test with BT-549 breast, in the test on SR leukemia, in the test on TK-10 renal, in the test on SN12C renal, in the test on NCI-H226 lung and in the test with SNB-19 CNS was > 100 µM each time. The TGI in the test with A498 renal, in the test with IGROV1 ovarian, in the test on HT29 colon, with MOLT-4 leukemia, with SF-295 CNS and in the test with U251 CNS was > 100 µM in each case. Besides, the TGI with CAKI-1 renal is > 100 µM.

In the case of `CC1(C)OC(=O)CC12CCN(Cc1ccccc1)CC2`, the TGI with K-562 leukemia, with RPMI-8226 leukemia, in the test with OVCAR-5 ovarian, in the test with COLO 205 colon, in the test on UACC-62 melanoma and in the test with BT-549 breast was > 100 µM each time. For the same compound, the TGI in the test on SR leukemia, in the test with TK-10 renal, in the test on SN12C renal, with NCI-H226 lung, with SNB-19 CNS and in the test with A498 renal was > 100 µM throughout. Moreover, the TGI in the test on HOP-62 NSCLC, in the test with IGROV1 ovarian, in the test with HT29 colon, in the test with MOLT-4 leukemia, in the test on SF-295 CNS and in the test on U251 CNS was > 100 µM each time. Also, in the test on CAKI-1 renal, the TGI is > 100 µM.

Take `O=C1NC(Cc2c[nH]c3ccccc23)C(=O)N2C(c3ccccc3)c3[nH]c4ccccc4c3C[C@@H]12` (stereo not given in full): the TGI came out at 55.1 µM with K-562 leukemia; 50.8 µM in the test on RPMI-8226 leukemia; 45.2 µM with OVCAR-5 ovarian; 45.9 µM with COLO 205 colon; 34.7 µM in the test with UACC-62 melanoma; 46.4 µM with BT-549 breast. Moreover, the TGI in the test with SR leukemia was 37.7 µM; in the test with TK-10 renal it was 91.4 µM; with SN12C renal, 33.3 µM; in the test on NCI-H226 lung, 88.9 µM; with SNB-19 CNS it was > 100 µM; with A498 renal, > 100 µM. Moreover, the TGI in the test on HOP-62 NSCLC amounted to 38.2 µM; in the test with IGROV1 ovarian, 50.1 µM; in the test with HT29 colon, 48.6 µM; with MOLT-4 leukemia, 42.2 µM; in the test with SF-295 CNS, 33.1 µM; with U251 CNS, 39.2 µM. Besides, in the test on CAKI-1 renal, the TGI was found to be 55.9 µM.
